Reference: US7220575B2, “Melanoma differentiation associated gene-5 and promoter and uses thereof” (priority 2000, dated 2007)
“Also recorded” adds a separate entry of the source.

Key:
mda-5 expression [1] = assay: Northern blot analysis of mda-5 expression in early passage human skin fibroblast cells; assay type: cell-based
Method: (§1) FIGS. 2A–2B. Northern blot analysis of mda-5 expression by various compounds inducing differentiation in HO-1 human melanoma cells. RNA samples were extracted from cells treated as indicated for 24 hr. FIG. 2A. HO-1 human melanoma cells. FIG. 2B. Early passage human skin fibroblast cells. Northern hybridization was performed as in Materials and Methods.
(§2) FIGS. 4A–4B. Northern blot analysis of mda-5 expression by ligands for various membrane receptors. RNA samples were extracted from cells treated as indicated for 24 hr. FIG. 4A. HO-1 human melanoma cells. FIG. 4B. Early passage human skin fibroblast cells. Northern hybridization was performed as in Materials and Methods.
(§3) Cell Culture and Treatment Protocol: HO-1 human melanoma cells, early passage human skin fibroblast (purchased from ATCC) and 293T cells were grown in Dulbecco's modified Eagle's medium supplemented with 10% fetal bovine serum at 37° C. in a 5% CO2/95% air humidified incubator. Prior to treatment, cells were refed with fresh medium and exposed to the indicated compound(s) at the concentrations specified in the figure legends.
(§4) Northern Blot Analyses and Nuclear Run-On Assays: Total cellular RNA samples were prepared by guanidium isothiocyanate/phenol extraction followed by isopropanol precipitation. Ten 10 μg of total RNA were resolved in 1% agarose gels with formaldehyde and were transferred to Nylon membranes. EcoRI fragment of mda-5 cDNA (2.5 kb) was labeled with 32P using a multiprime labeling kit (Boehringer Mannheim) and used to probe the transferred membrane. Nuclear run-on assays were performed as previously described ((17) Su et al., 1993, 1999). Probes used for nuclear run-on assays were prepared by RT-PCR and included the mda-5 5′, 9–837 bp; mda-5 3′, 2531–3365 bp; and GAPDH fragment.

mda-5 expression [2] = assay: Northern blot analysis of mda-5 expression in HO-1 human melanoma cells; assay type: cell-based; settings: HO-1 cells; for mda-5 expression (steady-state mda-5 message level): treated 24 hr, Northern blot
Method: as §1, §2
FIG. 5. Northern blot analysis and time course of mda-5 expression. RNA samples were extracted from HO-1 cells treated with the indicated reagents and harvested at the indicated time after treatment. Northern blotting was performed as in Materials and Methods.
(§5) FIGS. 7A–7C. […] A. Northern blot analysis of mda-5. […] Cells were harvested at the indicated time after actinomycin D treatment. Northern hybridization was performed as in Materials and Methods. FIG. 7B. Nuclear run-on assays for determining mda-5 transcription rates. Nuclei were prepared from HO-1 melanoma cells treated with the indicated reagent(s) for 4 hr. Blots were prepared and hybridized as described in Materials and Methods. […] FIG. 7C. Northern blot analysis of mda-5 expression after blocking protein synthesis by cycloheximide (CHX). RNA samples were extracted from HO-1 melanoma cells pretreated with 50 μg/ml cycloheximide for 30 min and treated with the indicated reagents for 8 hr. Abbreviations and concentrations of indicated reagents are as in FIG. 4.
as §3, §4

mda-5 transcription = assay: Nuclear run-on assays for mda-5 transcription rates in HO-1 melanoma cells; assay type: cell-based, human; settings: HO-1 cells treated 4 hr
Method: as §5
as §4, with “Probes used for nuclear run-on assays were prepared by RT-PCR and included the mda-5 5′, 9–837 bp; mda-5 3′, 2531–3365 bp; and GAPDH fragment.” left out

mda-5 promoter = mda-5 promoter luciferase reporter in HO-1 cells (transient and stable clones); assay type: cell-based, human
Method: FIG. 11: Screening of stable human HO-1 melanoma clones for promoter activity of stably integrated mda-5 reporter construct. Transfected HO-1 cells were selected by Puromycin drug selection and individual colonies analyzed for induction of luciferase activity in the presence of IFN-β. Values are expressed as fold change against uninduced values of luciferase activity.
FIG. 12: Induction kinetics of mda-5 promoter activity. Stable clones #20 and #40 were treated with IFN-β and samples were harvested and analyzed for luciferase activity at the times indicated.
FIG. 13: Responsiveness of the mda-5 promoter to IFN-β levels: Stable clones #20 and #40 were treated with IFN-β and samples were harvested and analyzed for luciferase activity 48h after initiation of treatment. The extent of activity was normalized based on equivalent protein content and performed in duplicate for each clone.
FIGS. 14A–14B: Responsiveness of the mda-5 promoter to various inducers: FIG. 14A. HO-1 cells transiently transfected with the mda-5 reporter and treated for 48 h with equivalent units of IFNs α, β and γ and TNF-α and poly IC:IC. The luciferase activity was expressed as fold increase over untreated control cells. FIG. 14B. Clone #40 was treated with equivalent units of the indicated IFNs for 48 h and luciferase activity expressed as fold activation over untreated cells determined. […]

Row | Compound | mda-5 expression (mda-5 expression [1]) | mda-5 expression (steady-state mda-5 message level) (mda-5 expression [2]) | other results
1 | TNF-α | induce mda-5 expression | induce mda-5 expression; also recorded: comparable levels as seen with IFN-α | –
2 | C[C@@H]1C[C@@H]([C@H](O)CC2CC(=O)NC(=O)C2)C(=O)[C@@H](C)C1 [Cycloheximide, cycloheximide] | – | – | effect of cycloheximide pre-treatment on mda-5 steady-state mRNA levels induced by IFNs, TNF and poly IC (mda-5 expression [2]; 50 μg/ml cycloheximide 30 min, then inducers 8 hr): does not inhibit
3 | COc1c(C)c2c(c(O)c1C/C=C(\C)CCC(=O)O)C(=O)OC2 [mycophenolic acid] | – | fail to significantly induce mda-5 expression | –
4 | C=C(C)[C@@]12O[C@@]3(c4ccccc4)O[C@@H]1[C@@H]1[C@@H]4O[C@]4(CO)[C@@H](O)[C@]4(O)C(=O)C(C)=C[C@H]4[C@@]1(O3)[C@H](C)[C@H]2OC(=O)/C=C/C=C/c1ccccc1 [MEZ, mezerein] | – | does not induce mda-5 expression | augmentation of mda-5 expression by MEZ in combination with IFN-β (mda-5 expression [2]; 24 hr): approximately 3 fold; augmentation of mda-5 expression by MEZ in combination with IFN-γ (mda-5 expression [2]; 24 hr): ~5 fold; time at which mda-5 message level begins increasing / induction first apparent (mda-5 expression [2]; time course): 48 h; mda-5 transcription (nuclear run-on) (mda-5 transcription): negligible levels of transcription
5 | CCCCCCCCCCCCCC(=O)O[C@@H]1[C@@H](C)[C@@]2(O)[C@@H](C=C(CO)C[C@]3(O)C(=O)C(C)=C[C@@H]23)[C@@H]2C(C)(C)[C@]12OC(C)=O [TPA, 12-O-tetradecanoylphorbol-13-acetate] | – | fail to significantly induce mda-5 expression | –
6 | IFN-α | induce mda-5 expression | induce mda-5 expression; also recorded: increase mda-5 transcript levels, but the magnitude of this effect is less than with IFN-β or dsRNA | –
7 | C[S+](C)[O-] [dimethyl sulfoxide] | – | fail to significantly induce mda-5 expression | –
8 | poly IC | induce mda-5 expression | induce mda-5 expression | mda-5 expression (steady-state mda-5 message level) (mda-5 expression [2]; listed as dsRNA): dramatically increases; responsiveness of mda-5 promoter construct / clones to inducer (mda-5 promoter): most responsive
9 | CC1=C(/C=C/C(C)=C/C=C/C(C)=C/C(=O)O)C(C)(C)CCC1 [all trans retinoic acid, all-trans-retinoic acid] | – | fail to significantly induce mda-5 expression | –
10 | IFN-γ: interferon-γ | induce mda-5 expression | induce mda-5 expression; also recorded: increase mda-5 transcript levels, but the magnitude of this effect is less than with IFN-β or dsRNA | –
11 | Nc1ncnc2c1ncn2[C@@H]1O[C@@H]2COP(=O)(O)O[C@H]2[C@H]1O [cyclic-AMP, 3′–5′ cyclic adenosine monophosphate] | – | fail to significantly induce mda-5 expression | –
